Assays:
caspase-3 = assay: Caspase-3 activity (CaspACE colorimetric assay) in MCF-7 cells; type: cell-based, human; details: MCF-7 cells (lack caspase-3)
Protocol: Caspase-3 Activity: The CaspACE Assay System was used to measure the activity of caspase-3. After incubation under appropriate conditions, the cells were lysed in CaspACE lysis buffer, and protein concentration was determined by dye reagent protein assay (Bio-Rad, Hercules, Calif.). […] The lysates with equal protein amounts were incubated with DEVD-p-nitroaniline substrate for 4 hours at 37° C. The reaction products were detected at 405 nm using a PowerWave X automated plate reader (Bio-Tek Instruments).
As another confirmatory test for antisense p21 ODN-mediated apoptosis, caspase-3 activation was assessed. Members of the caspase family of proteases are essential components of an evolutionarily conserved cell death pathway in multicellular eukaryotes and play key roles in inflammation and apoptosis in mammalian cells. Caspase-3 has substrate specificity for the amino acid sequence DEVD (Asp-Glu-Val-Asp) and is inhibited by the tetrapeptide inhibitor Ac-DEVD-CHO; its catalytic activity was assessed colorimetrically using the labeled Ac-DEVD-pNA substrate. […] T47D cells were grown to confluence, serum starved for 24 hours, and lipofected with antisense p21 or control ODN at the concentrations indicated. Caspase-3 activity was assessed as described in “Capase-3 Activity” using a colorimetric method. […]

T47D cells = assay: Nuclear morphology (Hoechst 33258) in T47D cells; type: cell-based, human; details: serum stimulated 24 hours after lipofection
Protocol: Evaluation of Nuclear Morphology: Cells were seeded in 6-well culture dishes and treated with ODNs as described. The cells were then immersed in methanol for at least 10 min. Cells were stained in 1 μg/ml Hoechst 33258 in water with 1% nonfat dry milk. After staining for 8-10 min, the cells were rinsed in water and dried completely. Nuclear morphology was visually evaluated by fluorescence microscopy.
Apoptosis is the end result of an elaborate cascade of molecular events that ultimately result in programmed cell death; thus, a variety of tests are generally used to determine whether apoptosis is occurring. The methods to study apoptosis were employed: (a) assessment of nuclear morphology; (b) PARP cleavage; and (c) caspase-3 cleavage. Serum-starved cells were transfected with antisense p21 ODN or the control ODN, fixed, stained with Hoechst 33258, and examined under UV light. MCF7 and T47D cells were grown to confluence, serum starved for 24 hours, and lipofected with antisense p21 or control ODN. The cells were subsequently serum stimulated for another 24 hours, fixed, stained with Hoechst 33258, and examined under UV light at X400.

p21^Waf1/Cip1 = assay: PMA-induced p21 level by Western blot in A431 cells; type: cell-based, human; details: 200 nM oligodeoxynucleotide, PMA 100 ng/ml up to 6 hours
Protocol: (§1) Western blots: Cells were grown to confluence in 6 cm culture dishes and serum deprived. After transfection and or treatment with appropriate agonist, the cells were washed with phosphate-buffered saline and lysed in lysis buffer and the supernatant was Western blotted as described (Weiss and Nuccitelli, 1992 J. Biol. Chem., 267, p. 5608-5613).
PMA is a potent inducer of p21^Waf1/Cip1 in a variety of different cell lines (Huang et al., 1995 Proc. Natl. Acad. Sci. US.A., 92, p. 4793-4797; Michieli et al., 1994 Cancer Res., 54, p. 3391-3395) and was employed to examine p21^Waf1/Cip1 levels after antisense transfection and confirm efficacy of translation to attenuate p21^Waf1/Cip1 levels. A431 cells were transfected with 200 nM antisense p21^Waf1/Cip1 (SEQ. ID NO.:1) or sense p21^Waf1/Cip1 oligodeoxynucleotide (SEQ. ID NO.:2). After overnight incubation in serum-free medium, the cells were stimulated with PMA (100 ng/ml) for the times indicated, lysed, and the lysates were Western blotted with p21^Waf1/Cip1 or α-actin antibody.

p27^Kip1 = assay: p27Kip1 protein level by Western blot in A10 VSM cells; type: cell-based, rat; details: PMA for 4 hours
Protocol: as §1, with “et al., 1998 Am.” for “and Nuccitelli, 1992”, “Physiol., 274,” for “Biol. Chem., 267,”, “C1521-C1529).” for “5608-5613).”
To check for specificity of protein inhibition by the antisense p21^Waf1/Cip1 oligodeoxynucleotide (SEQ. ID NO.: 1), protein levels of p21^Waf1/Cip1 and p27^Kip1 after transfection with antisense p21^Waf1/Cip1 oligodeoxynucleotide (SEQ. ID NO.:1) were examined. In these experiments the ability of antisense oligodeoxynucleotides (SEQ. ID NO.:1) to inhibit maximally stimulated CKI expression (see FIG. 4) was assessed. The cells were stimulated with PMA for 4 hours at various times after overnight serum starvation.
At the times indicated after the overnight incubation (in hours), the medium was changed to quiescence medium and the cells were stimulated with PMA for 4 hours to show maximal p21^Waf1/Cip1 expression (FIG. 6a). The lysates were immunoblotted with (a) p21^Waf1/Cip1 or p27^Kip1 antibody or (b) α-actin antibody. […]

Substance | caspase-3 cleavage (activity) (caspase-3) | nuclear morphology (T47D cells) | PMA-induced p21^Waf1/Cip1 levels (p21^Waf1/Cip1) | p27^Kip1 protein (p27^Kip1)
5′-ATC-CCC-AGC-CGG-TTC-TGA-CAT-3′ (antisense ATCCCCAGCCGGTTCTGACAT; listed as DNA, chemistry not fully specified) [antisense p21 ODN] | did not show significant caspase-3 cleavage products | nuclear morphological changes consistent with apoptosis |  | 
5′-GACATCACCAGGATCGGACAT-3′ |  |  | significant attenuation | slight decrease
